{"source": "patent US6340573B1", "about": "“Chromogenic substrates for detecting bacterial hydrolases” (Bio Merieux, priority 1998, dated 2002)", "system": "Alanine-aminopeptidase", "experiment": "GRAM identification with impregnated bottle brush", "assay_type": "cell-based, Gram-negative bacteria", "conditions": "for coloration intensity: semiquantitative scale up to 4", "description": "According to a representative example, the GRAM identification process uses a substrate based on aminobenzene or a derivative thereof, such as DiMethyl-paraPhenyleneDiamine (DMpPD). In the example which follows, the substrate consists of Alanine-Dimethyl-paraPhenyleneDiamine (AlaDMpPD).\nIt functions as follows. Enzymatic hydrolysis causes release of the DMpPD group. Next, the DMPD binds with α-naphthol (or a derivative) by oxidative coupling facilitated by an oxidizing agent, potassium ferricyanide (K3Fe(CN)6). This then causes formation of a violet-gray complex.\nAnother device has been defined, which is even more specific in Gram identification and which can also be used with blood agars of Columbia type. It consists of:\na medium consisting of a blood agar of Columbia type (with or without AlaDMpPD), and\na reaction mixture which impregnates a bottle brush and which is constituted on the basis of α-naphthol, potassium ferricyanide and AlaDMpPD and then dried.\nThis reaction mixture contained in the bottle brush was further improved by adding a step of drying the bottle brushes, which facilitates their subsequent manipulation.\nThe exact composition is as follows:\nfor the agar, presence or absence of AlaDMpPD at 0.075 gram per liter (g/l), and\nα-naphthol from 0.01 to 5 g/l, preferably from 0.1 to 1 g/l, and for example 0.5 g/l,\npotassium ferricyanide from 0.01 to 5 g/l, preferably from 0.1 to 1 g/l, and for example 0.5 g/l, and\nAlaDMpPD from 0.01 to 5 g/l, preferably from 0.1 to 1 g/l, and for example 0.35 g/l.\nThe results obtained in terms of sensitivity and specificity are thus the best obtained. In this case, the detection of the reaction is not instantaneous. It takes 15 to 30 seconds (s) to observe the appearance of any coloration, this being the time required for hydrolysis of the substrate by the bacterial aminopeptidase. […]", "data": [{"substance": "Alanine-Dimethyl-paraPhenyleneDiamine [AlaDMpPD]", "values": [{"measurement": "coloration intensity", "setting": "Gram-negative bacteria except Pseudomonas", "result": "greater than 2"}, {"measurement": "coloration intensity", "setting": "Gram-positive bacteria or false-positives except S. pyogenes", "result": "less than 1"}, {"measurement": "detection time", "setting": "most Gram-positive bacteria or false-positives, apart from S. pyogenes", "result": "> 10", "unit": "s"}]}]}
